Experimental data from ChEMBL document CHEMBL1135133, “Scaffold hopping and optimization towards libraries of glycogen synthase kinase-3 inhibitors” (Bioorg Med Chem Lett, 2002).

The compounds below were run against Glycogen synthase kinase-3 beta (Homo sapiens, UniProt P49841) (assay: Inhibitory concentration against human Glycogen synthase kinase-3).
Glycogen synthase kinase-3 beta, sequence (P49841 whole entry): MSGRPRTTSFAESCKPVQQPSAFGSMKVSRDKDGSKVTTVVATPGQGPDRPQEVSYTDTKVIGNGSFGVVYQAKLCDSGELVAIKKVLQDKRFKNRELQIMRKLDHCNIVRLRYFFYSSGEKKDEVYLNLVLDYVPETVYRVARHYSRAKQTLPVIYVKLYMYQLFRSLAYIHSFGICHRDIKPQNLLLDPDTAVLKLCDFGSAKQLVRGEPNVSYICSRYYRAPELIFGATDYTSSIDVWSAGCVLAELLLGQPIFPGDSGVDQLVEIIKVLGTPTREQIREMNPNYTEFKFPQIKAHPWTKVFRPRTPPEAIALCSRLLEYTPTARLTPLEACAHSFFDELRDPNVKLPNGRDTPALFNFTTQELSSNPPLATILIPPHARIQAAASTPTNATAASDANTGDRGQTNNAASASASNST

Compound | IC50 [µM]
Cc1nc(-c2cccc(CSc3nnc(-c4ccncc4)o3)c2)no1 | > 250
O=C(O)Cc1ccc(CSc2nnc(-c3cccnc3)s2)cc1 | > 250
Clc1ccccc1CSc1nnc(-c2ccncc2)o1 | 12
O=C(O)c1ccc(CSc2nnc(-c3ccncc3)o2)cc1 | 29
Fc1cccc(CSc2nnc(-c3ccncc3)o2)c1 | 1.4
Ic1ccc(CSc2nnc(-c3ccncc3)o2)cc1 | 198
O=C(O)Cc1ccc(CSc2nnc(-c3ccncc3)o2)cc1 | 8
c1ccc(CSc2nnc(-c3ccncc3)o2)cc1 | 6.7
COC(=O)c1cccc(CSc2nnc(-c3ccncc3)o2)c1 | 1.1
c1ccc(CCSc2nnc(-c3ccncc3)o2)cc1 | 29
O=C(O)Cc1ccc(CSc2n[nH]c(-c3ccncc3)n2)cc1 | > 250
O=C(O)c1cccc(CSc2nnc(-c3ccncc3)o2)c1 | 235
O=C(O)Cc1ccc(CSc2nnc(-c3ccccn3)s2)cc1 | > 250
O=C(O)Cc1ccc(CSc2nnc(-c3ccncc3)s2)cc1 | 11
O=C(Cc1ccc(CSc2nnc(-c3ccncc3)o2)cc1)NCCc1ccccc1F | 1.2
Clc1cccc(CSc2nnc(-c3ccncc3)o2)c1 | 0.82
